Source: patent US11241441B2, “Formulations of lixivaptan for the treatment of polycystic disease” (PALLADIO BIOSCIENCES, INC., priority 2017, dated 2022)

Key:
[1] = Measured Log P; assay type: physicochemical
[2] = target: T1, V2 receptor (Homo sapiens, UniProt P30518); assay: Single 100 mg oral dose study in ESRD and normal renal function subjects: pharmacodynamics (urine osmolality, vasopressin, urine output); assay type: in vivo; design: Lixivaptan antagonizes the effects of vasopressin that are mediated by the V2 receptor; from tissue; host or cells: living human subjects (in vivo clinical studies); the receptor is the subjects' own and no tissue was isolated
T1 sequence (P30518 whole entry): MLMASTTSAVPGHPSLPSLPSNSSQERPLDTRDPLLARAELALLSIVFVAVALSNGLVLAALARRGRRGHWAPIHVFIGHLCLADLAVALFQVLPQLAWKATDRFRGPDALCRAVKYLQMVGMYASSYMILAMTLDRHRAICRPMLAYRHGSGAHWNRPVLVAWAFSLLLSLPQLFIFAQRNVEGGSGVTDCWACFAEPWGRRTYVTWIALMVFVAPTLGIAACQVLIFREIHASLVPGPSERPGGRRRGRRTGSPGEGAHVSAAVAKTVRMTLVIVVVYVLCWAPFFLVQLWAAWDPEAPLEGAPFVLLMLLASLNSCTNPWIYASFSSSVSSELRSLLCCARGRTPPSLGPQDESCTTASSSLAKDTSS
Method: In this study, the PK of lixivaptan following a single 100 mg oral dose of lixivaptan was evaluated in subjects with end-stage renal disease (ESRD) and control subjects with normal renal function. Pharmacodynamic (PD) evaluations, including vasopressin concentration, serum sodium concentration, urine volume, and urine osmolality were assessed.

[3] = system: cAMP; assay: Cyclic AMP content of whole kidneys of PCK rats (Direct cAMP ELISA); assay type: in vivo, rat; settings: for cAMP: whole kidney
Method: Experimental animals and study design. PCK rats were divided into control and treatment groups at four weeks of age (n=59, ˜10 animals per treatment group and gender). Lixivaptan was dissolved in DMSO and added to ground rodent chow (Regrind Labdiet 5053) at 0.5% or 1.0% concentration (w/w) by homogenous mixing, whereas control animals received the same diet without lixivaptan. Animals were exposed to control- or lixivaptan-diet for eight weeks and were sacrificed at twelve weeks of age.
Experimental Protocol. Twenty-four hour urine outputs in metabolic cages were collected twice at 6 and 9 weeks of age (Study week 3 and 6, respectively). At the end of the dosing period, the animals were weighed and anesthetized with ketamine 90 mg/kg and xylazine 10 mg/kg, IP. Blood samples were obtained by cardiac puncture for determination of plasma electrolytes, creatinine and plasma urea levels. The right kidney and part of the liver were placed into pre-weighed vials containing 10% formaldehyde in phosphate buffer (pH 7.4). The tissues were embedded in paraffin for histological studies. The left kidneys were immediately frozen in liquid nitrogen for determination of cAMP.
The kidneys were weighed and ground to fine powder under liquid nitrogen in a stainless steel mortar and homogenized in 10 volumes of 0.1M HCl. The protein concentration was measured by using BCA Protein Assay Kit (Pierce, Ill.). After centrifugation at 600 g for 10 min, the supernatant was further diluted in 0.1M HCl and run directly in the assay or stored frozen for later analysis. The cAMP content was assessed by Direct cAMP ELISA kit, according to the manufacturer's instructions (Enzo Life Sciences, Inc. Farmingdale, N.Y.). Samples were taken in triplicate. The results were expressed in pmol/mg of protein.

[4] = In-clinic pharmacokinetic study: adverse events, serum osmolality, urine output; assay type: in vivo, human
Method: Subjects received lixivaptan at total daily doses of 100 mg, 200 mg, or 400 mg (administered as 50, 100, and 200 mg Q12H). Subjects were to be enrolled into the study in two cohorts of 30 subjects, but actual cohort numbers were 23 and 34 subjects. Of the 57 subjects enrolled in the study, 27 were female (47.4%) and 30 were male (52.6%). The majority of subjects were White (35/57, 61.4%) and of Hispanic or Latino ethnicity (46/57, 80.7%). The overall mean age of subjects in the study was 33.6 (8.31) years, and the overall mean body mass index for subjects was 26.2 (3.79). There were to be approximately 20 subjects enrolled per dose level. An approximately equal number of males and females were enrolled at each dose level such that neither gender was represented by fewer than 8 subjects. The starting date for each cohort subjects was staggered by 7 days for logistical purposes. Screening evaluations were performed within 28 days prior to Day 1.
The following doses of lixivaptan were administered to subjects in this study: (a) Lixivaptan 100 mg, administered as 50 mg [1×50 mg capsule] every 12 hours×15 doses; (b) lixivaptan 200 mg, administered as 100 mg [2×50 mg capsules] every 12 hours×15 doses; and (c) Lixivaptan 400 mg, administered as 200 mg [4×50 mg capsules] every 12 hours×15 doses.
Prior to the morning doses of lixivaptan on Days 1 and 8, subjects fasted for approximately 10 hours prior to lixivaptan administration and 4 hours after lixivaptan administration. All other doses were administered under fasting conditions, either 2 hours before or 2 hours after meals. The study medication was administered with 240 milliliters (mL) room temperature water. Subjects were not to receive any oral fluids, other than those used to administer the dose, for 1 hour before and 1 hour after dose administration. Subjects remained sitting or semi-supine, except to void, for 6 hours following the first two doses. While in the clinic, the subjects refrained from strenuous physical activity.

[5] = target: T1, V2 receptor; assay: Ascending multiple-dose, safety and tolerance study in healthy adult male subjects
Method: Lixivaptan in healthy volunteers was tested in a randomized, double-blind, placebo-controlled, ascending multiple-dose, safety and tolerance clinical study in 98 healthy male subjects.

Structure (SMILES): Cc1ccc(F)cc1C(=O)Nc1ccc(C(=O)N2Cc3cccn3Cc3ccccc32)c(Cl)c1 [Lixivaptan, 5-fluoro-2-methyl-N-[4-(5H-pyrrolo[2,1-C] [1,4]benzodiazepin-10(11H)-ylcarbonyl)-3-chlorophenyl]benzamide]
- logP [1]: 1
- Urine osmolality Change from baseline Mean ([2]; 0 to 2 hours postdose, ESRD): −109.0 mosmol/kg
- Urine osmolality Observed Mean ([2]; 0 to 2 hours postdose, ESRD, single 100 mg oral dose): 216.5 mosmol/kg
- Urine osmolality Change from baseline Mean ([2]; 0 to 2 hours postdose, Normal): −398.5 mosmol/kg
- Urine osmolality Observed Mean ([2]; 0 to 2 hours postdose, Normal, single 100 mg oral dose): 132.6 mosmol/kg
- Urine osmolality Change from baseline Mean ([2]; 2 to 4 hours postdose, ESRD): −108.7 mosmol/kg
- Urine osmolality Observed Mean ([2]; 2 to 4 hours postdose, ESRD): 202.4 mosmol/kg
- Urine osmolality Change from baseline Mean ([2]; 2 to 4 hours postdose, Normal): −412.6 mosmol/kg
- Urine osmolality Observed Mean ([2]; 2 to 4 hours postdose, Normal): 109.9 mosmol/kg
- Urine osmolality Change from baseline Mean ([2]; 4 to 8 hours postdose, ESRD): −118.3 mosmol/kg
- Urine osmolality Observed Mean ([2]; 4 to 8 hours postdose, ESRD): 195.1 mosmol/kg
- Urine osmolality Change from baseline Mean ([2]; 4 to 8 hours postdose, Normal): −258.3 mosmol/kg
- Urine osmolality Observed Mean ([2]; 4 to 8 hours postdose, Normal): 272.8 mosmol/kg
- effect on change from baseline in urine osmolality ([2]; ESRD group): markedly reduced
- Urine osmolality Observed Mean ([2]; Predose, ESRD): 311.1 mosmol/kg
- Urine osmolality Observed Mean ([2]; Predose, Normal): 514.7 mosmol/kg
- vasopressin levels ([2]; both renal function groups): elevations of vasopressin levels
- urine output ([2]; normal group): increased urine output
- reduction in kidney cAMP levels ([3]; PCK rats, 0.5% lixivaptan, compared to control): 23%
- cAMP ([3]; PCK rats F, 0.5% Lixivaptan): 15.0 ± 4.6 pmol/mg protein
- cAMP ([3]; PCK rats F, 1.0% Lixivaptan): 23.6 ± 8.1 pmol/mg protein
- cAMP ([3]; PCK rats M, 0.5% Lixivaptan): 16.5 ± 5.1 pmol/mg protein
- cAMP ([3]; PCK rats M, 1.0% Lixivaptan): 24.0 ± 12.0 pmol/mg protein
- headache considered possibly or probably related to study drug ([4]; 100 mg group): 2 subject
- headache considered possibly or probably related to study drug ([4]; 200 mg group): 1 subject
- asthenia considered possibly or probably related to study drug ([4]; 400 mg group): 1 subject
- headache considered possibly or probably related to study drug ([4]; 400 mg group): 1 subject
- vomiting considered possibly or probably related to study drug ([4]; 400 mg group): 1 subject
- urine output ([4]; Days 1-8): increased
- serum osmolality ([4]; during the study, dose related): mildly increased
- tolerability ([4]; healthy subjects, 50-200 mg Q12H for 7.5 days): well tolerated
- treatment-emergent AE chest discomfort ([4]; of the 57 enrolled subjects): 2 subjects
- treatment-emergent AE constipation ([4]; of the 57 enrolled subjects): 3 subjects
- treatment-emergent AE headache ([4]; of the 57 enrolled subjects): 7 subjects
- maintenance of urine osmolality below 300 mOsm/kg ([5]; 300 mg to 800 mg doses (FIG. 3)): up to 12 hours
- suppression of Uosm to values <300 mOsm/kg ([5]; 800 mg dose only): up to 24 hours
- time Uosm remained below iso-osmolar point ([5]; 100-mg dose): 4 h
- time of minimal values of Uosm after drug administration ([5]; across all dose groups): ≤ 2 h
- serum osmolality ([5]; all subjects given lixivaptan): significant dose-related increases
- safety and tolerability ([5]; daily oral doses up to 800 mg, twice daily up to 400 mg, 14 consecutive days, healthy men): safe and well tolerated
- minimal values of Uosm ([5]; doses of 25 mg and higher): < 300 mOsm/L
- urine output, 0-to-24-hour collection interval ([5]; doses of 200 mg or larger, across 14 days, vs placebo): significantly greater urine output than placebo
- urine output, first 4 hours after drug administration ([5]; single dose of 25 mg or higher, vs placebo): significantly greater urine output than placebo
- Uvol (0-to-4-hours) ([5]; single doses of 25 mg and higher (day 1)): doubling
